From publication PMC12627862, “Therapeutic targeting of endothelial calcium signaling accelerates the resolution of lung injury” (Signal Transduction and Targeted Therapy, 2025)
Starred links: 1 amine or outer side, 2 acyl side, 3 side chain; linkers in the order of their positions; H or OH if unused. Positions of bridges follow the written chain, without caps; N, C: chain ends. Non-standard residues stand in square brackets, D forms with d. Residues, ends and D or L forms follow the SMILES beside them. ξ: configuration not given here. Leu(4,5-dehydro) = C=C(C)C[C@H](N)C(=O)O; X4 = C=C(C)C[C@@H](N[*:1])C(=O)[*:2]; dVal(3-OH) = CC(C)(O)[C@@H](N)C(=O)O; cisHyp = O=C(O)[C@@H]1C[C@H](O)CN1; tBuAla = CC(C)(C)C[C@H](N)C(=O)O; R5 = C=CCCC[C@@](C)(N)C(=O)O; 3Amb = NCc1cccc(C(=O)O)c1; ξP = O=C(O)C1CCCN1

Key:
[1] = Aggregation / solubility at 1 mM; assay type: physicochemical; settings: summary calls it solubility at 1mM
Procedure: (§1) The solubilities of the synthesized compounds were determined experimentally (Supplementary Table 2). Most compounds were highly soluble at a 1 mM concentration; however, some compounds tended to form aggregates. These compounds were excluded from further studies. In addition, we experimentally determined the lipophilicity of each compound, logP(oct/wat)=log(soluteoct/solutewat ), which is the partition coefficient of a compound between aqueous (water) and lipophilic (octanol) phases (Supplementary Table 2).

[2] = Lipophilicity of peptides, logP(oct/wat); assay type: physicochemical
Procedure: as §1
Lipophilicity of peptides. Two separate solutions were obtained: an aqueous phosphate buffer with saturated n-octanol, and an n-octanol solution with saturated phosphate buffer. Peptides were then dissolved and diluted in the phosphate buffer. Different partitions were then made with different n-octanol to water ratio before shaking for an hour at room temperature. The aqueous phase and n-octanol were allowed to equilibrate, and each phase was extracted and analyzed for peptide concentrations. The ratio of peptide concentration in n-octanol to that in water is expressed as log(P).

[3] = target: EB3 interactions with IP3R3-GFP (Homo sapiens, UniProt Q9UPY8); test: Competitive binding: inhibition of EB3 interaction with IP3R3-GFP in vitro; assay type: biochemical; settings: for inhibition at 0.25 µM: 250 nM
From the text: We tested the efficacy of twenty-three compounds in inhibiting EB3 interactions with IP3R3-GFP via an in vitro approach developed by us[12],[13]. […] Guided by NMR studies, we predicted the binding pose of 109 to EB3 via AutoDock Vina[13],[24],[25].

EB3 interactions with IP3R3-GFP, sequence (Q9UPY8 whole entry): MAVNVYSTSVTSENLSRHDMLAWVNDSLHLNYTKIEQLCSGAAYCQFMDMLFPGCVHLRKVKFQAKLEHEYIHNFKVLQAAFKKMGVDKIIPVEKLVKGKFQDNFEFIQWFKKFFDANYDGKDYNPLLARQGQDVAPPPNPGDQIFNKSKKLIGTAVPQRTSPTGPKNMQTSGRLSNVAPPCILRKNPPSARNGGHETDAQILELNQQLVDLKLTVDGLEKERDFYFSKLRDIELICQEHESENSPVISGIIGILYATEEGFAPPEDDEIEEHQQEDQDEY

Row | Compound | Aggregation at 1mM [1] | logD [2] | inhibition at 0.25 µM [3] | Competitive Binding at 250nM (% Inhibition) [3]
1 | CC[C@H](C)[C@H](NC(=O)CC(O)CNC(=O)[C@@H]1[C@@H]2CCCC[C@@H]2CN1C(=O)[C@H](CC(C)(C)C)NC(=O)c1cccc(CNC(=O)[C@H](NC(=O)[C@@H](N)Cc2ccccc2)C(C)(C)O)c1)C(=O)O (stereo partly drawn) [compound 041, (4-((1S,3aS,7aR)-2-((S)-2-(3-(((R)-2-((S)-2-amino-3-phenylpropanamido)-3-hydroxy-3-methylbutanamido)methyl)benzamido)-4,4-dimethylpentanoyl)octahydro-1H-isoindole-1-carboxamido)-3-hydroxybutanoyl)-L-isoleucine] | 0.18 | 0.71 | 30% | 
2 | CC[C@H](C)[C@H](NC(=O)[C@H](NC(=O)[C@@H]1C[C@H](O)CN1C(=O)[C@H](CC(C)(C)C)NC(=O)c1cccc(CNC(=O)[C@H](NC(=O)[C@@H](N)Cc2ccccc2)C(C)(C)O)c1)C(C)(C)O)C(=O)O [compound 042, ((R)-2-((2S,4S)-1-((S)-2-(3-(((R)-2-((S)-2-amino-3-phenylpropanamido)-3-hydroxy-3-methylbutanamido)methyl)benzamido)-4,4-dimethylpentanoyl)-4-hydroxypyrrolidine-2-carboxamido)-3-hydroxy-3-methylbutanoyl)-L-isoleucine] (H-F[dVal(3-OH)][3Amb][tBuAla][cisHyp][dVal(3-OH)]I-OH) | weak signal | 0.03 | 36% | 
3 | C=C(C)C[C@H](NC(=O)[C@@H](NC(=O)[C@@H]1CCCN1C(=O)[C@H](CC(C)(C)C)NC(=O)[C@H](CCC(=O)O)NC(=O)[C@H](NC(=O)[C@H](N)Cc1ccccc1)C(C)(C)O)[C@@H](C)O)C(N)=O [compound 044, (S)-4-((R)-2-((R)-2-amino-3-phenylpropanamido)-3-hydroxy-3-methylbutanamido)-5-(((S)-1-((S)-2-(((2S,3R)-1-(((S)-1-amino-4-methyl-1-oxopent-4-en-2-yl)amino)-3-hydroxy-1-oxobutan-2-yl)carbamoyl)pyrrolidin-1-yl)-4,4-dimethyl-1-oxopentan-2-yl)amino)-5-oxopentanoic acid] (H-[dF][dVal(3-OH)]E[tBuAla]PT[Leu(4,5-dehydro)]-NH2) | weak signal | -0.59 | 51% | 
4 | C=C(C)C[C@H]1NC(=O)[C@](C)(NC(=O)[C@@H](CCC(=O)O)NC(=O)[C@H](N)[C@H](C)O)CCC/C=C\CCC[C@](C)(C(=O)N[C@H](C(=O)O)[C@@H](C)CC)NC(=O)[C@H]([C@@H](C)O)NC(=O)C2CCCN2C1=O (stereo partly drawn) [compound 052, (4R)-4-((2R,3S)-2-amino-3-hydroxybutanamido)-5-(((3S,6R,15R,18R,Z)-6-(((1S,2S)-1-carboxy-2-methylbutyl)carbamoyl)-3-((R)-1-hydroxyethyl)-6,15-dimethyl-18-(2-methylallyl)-1,4,16,19-tetraoxo-2,3,4,5,6,7,8,9,12,13,14,15,16,17,18,19,21,22,23,23a-icosahydro-1H-pyrrolo[1,2-d][1,4,7,10]tetraazacyclohenicosin-15-yl)amino)-5-oxopentanoic acid] (H-[dT][dE][R5][X4][ξP]T[R5]I-OH; staple (Z) 3-7) | 0.17 | -0.07 | 73% | 
5 | C=C(C)C[C@H](NC(=O)c1ccc(CNC(=O)CC(O)CNC(=O)[C@H](N)Cc2ccccc2)cc1)C(=O)N1[C@H](C(=O)NCC(O)CC(=O)N[C@@H](CC(C)(C)C)C(=O)O)C[C@@H]2CCCC[C@@H]21 (stereo partly drawn) [compound 102, (2S)-2-(4-((2S,3aS,7aS)-1-((2S)-2-(4-((4-((R)-2-amino-3-phenylpropanamido)-3-hydroxybutanamido)methyl)benzamido)-4-methylpent-4-enoyl)octahydro-1H-indole-2-carboxamido)-3-hydroxybutanamido)-4,4-dimethylpentanoic acid.] | weak signal | 0.2 |  | no inhibition
